Where two headings read alike, the source gives them in different places.
What was measured:
[1] = Pharmacokinetics in beagle dogs; format: in vivo; settings: for MRT: beagle
Procedure: After subcutaneous administration to beagle dogs, plasma was collected and the drug concentration in plasma was determined to illustrate the in vivo pharmacokinetic properties of the compound according to the present invention. The compound of the present invention was administered to a beagle dog (7-9 kg) at a dose of 0.05mg/kg subcutaneously (s.c.). About 500 µL of whole blood was collected from the saphenous vein into an EDTA-K2 anticoagulant tube at predose, 0.5 hours, 1 hour, 2 hours, 6 hours, 10 hours, 24 hours, 48 hours, 72 hours and 96 hours, respectively. The blood samples were centrifuged at 3000 g and at 2°C to 8°C for 10 minutes to obtain plasma, which was stored at -90°C to -60°C for further analysis and assay.
20.0 µL of thawed plasma sample was taken. […] Then 120 µL of 0.1% formic acid in methanol was added to precipitate the protein. The mixture was vortexed for 5 minutes, and centrifuged at 4815g for 10 minutes. 100.0 µL of the supernatant was taken, into which 100 µL of 0.5% aqueous formic acid solution was added. The mixture was vortexed for 5 minutes. 10 µL of the mixture solution was sampled and injected into the LC-MS/MS to determine the drug concentration in plasma.
Based on the drug concentration in plasma of the compound in the beagle dogs, the pharmacokinetic parameters were calculated by applying the software Winnolin 8.3 in a non-compartmental model. Table 11 Average pharmacokinetic parameters after single subcutaneous administration in beagle dogs

human GLP-1R = human GLP-1R (Homo sapiens, UniProt P43220); test: Agonistic activity on GLP-1R of different species (LANCE Ultra cAMP assay): human; format: cell-based; design: expressed in transfected cells; host or cells: HEK293/CRE/GLP-1R clonal cells; settings: ratio of EC50 value of other species to human EC50 value
Chain of human GLP-1R (P43220 24-463): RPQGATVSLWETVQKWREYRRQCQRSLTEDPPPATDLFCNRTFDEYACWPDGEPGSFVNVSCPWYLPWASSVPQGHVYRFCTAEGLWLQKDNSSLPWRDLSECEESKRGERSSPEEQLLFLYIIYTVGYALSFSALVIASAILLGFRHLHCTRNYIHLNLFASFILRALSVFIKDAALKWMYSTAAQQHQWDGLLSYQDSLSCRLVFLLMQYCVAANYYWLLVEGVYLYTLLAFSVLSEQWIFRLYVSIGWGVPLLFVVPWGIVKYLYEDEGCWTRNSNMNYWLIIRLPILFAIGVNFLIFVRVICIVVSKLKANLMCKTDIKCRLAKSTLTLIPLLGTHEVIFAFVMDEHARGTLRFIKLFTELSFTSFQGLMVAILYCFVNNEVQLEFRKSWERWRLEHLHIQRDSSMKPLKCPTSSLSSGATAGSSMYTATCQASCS

[2] = beagle dogs, single subcutaneous administration, 0.05mg/kg
[3] = dog, in vivo, sc, beagle dogs, single subcutaneous administration, 0.05mg/kg

CC[C@H](C)[C@H](NC(=O)C(C)(C)NC(=O)[C@H](Cc1ccc(O)cc1)NC(=O)[C@H](CC(=O)O)NC(=O)[C@H](CO)NC(=O)[C@@H](NC(=O)C(C)(Cc1ccccc1)NC(=O)[C@@H](NC(=O)CNC(=O)[C@H](CCC(=O)O)NC(=O)C(C)(C)NC(=O)[C@@H](N)Cc1ccc(O)cc1)[C@@H](C)O)[C@@H](C)O)C(=O)NC(C)(C)C(=O)N[C@@H](CC(C)C)C(=O)N[C@@H](CC(=O)O)C(=O)N[C@@H](CCCCN)C(=O)N[C@@H](CCC(N)=O)C(=O)N[C@@H](C)C(=O)N[C@@H](CCC(N)=O)C(=O)N[C@@H](C)C(=O)N[C@@H](CCC(=O)O)C(=O)N[C@@H](Cc1ccccc1)C(=O)N[C@H](C(=O)N[C@@H](CCCCNC(=O)COCCOCCNC(=O)COCCOCCNC(=O)COCCOCCNC(=O)CC[C@H](NC(=O)CCCCCCCCCCCCCCCCCCCCC(=O)O)C(=O)O)C(=O)N[C@@H](Cc1c[nH]c2ccccc12)C(=O)N[C@@H](CC(C)C)C(=O)N[C@@H](CC(C)C)C(=O)N[C@@H](CCCCN)C(=O)NCC(=O)NCC(=O)N1CCC[C@H]1C(=O)N[C@@H](CO)C(=O)N[C@@H](CO)C(=O)NCC(=O)N[C@@H](C)C(=O)N1CCC[C@H]1C(=O)N1CCC[C@H]1C(=O)N1CCC[C@H]1C(=O)N[C@@H](CO)C(=O)N[C@@H](CCCCN)C(N)=O)C(C)C (stereo partly drawn) [Compound P016]
AUC(0-t) [1, 2]: 29925 ng·h/mL | Cmax [1, 2]: 407.33 ng/mL | Tmax [1, 2]: 19.33 h | MRT ([1]; dog, in vivo, sc, 0.05 mg/kg, MRT0-inf): 108 ± 23.2 h | MRT ([1]; dog, in vivo, sc, 0.05 mg/kg, MRT0-t): 44.8 ± 4.17 h | T1/2 ([1]; dog, in vivo, sc, 0.05 mg/kg): 69.32 h | AUC(0-inf) [1, 3]: 52100 ± 14700 ng·h/mL | half-life [1, 3]: 69.3 ± 14 h | AUC(0-t) ([1]; dog, in vivo, sc, beagle dogs, single subcutaneous administration, 0.05mg/kg, read-out: AUC0-t): 29900 ± 5660 ng·h/mL | Cmax ([1]; dog, in vivo, sc, beagle dogs, single subcutaneous administration, 0.05mg/kg, read-out: Cmax): 407 ± 45.8 ng/mL | Tmax ([1]; dog, in vivo, sc, beagle dogs, single subcutaneous administration, 0.05mg/kg, read-out: Tmax): 19.3 ± 8.08 h | GLP-1R EC50 ratio (human GLP-1R): 1.00

From patent publication EP4813403A1, “USE OF GLP-1R/GIPR DOUBLE-TARGET AGONIST IN PREPARING ANIMAL DRUG” (Hangzhou Zhongmeihuadong Pharmaceutical Co., Ltd., priority 2023, dated 2025)
